Experimental data as given in a flash point compilation (Sun et al. 2020).

`CCN(CCO)CCO` [2-[ethyl(2-hydroxyethyl)amino]ethanol] gave a flash point of 98.00 °C.
`Cc1c(COC(=O)C2C(C=C(Cl)C(F)(F)F)C2(C)C)cccc1-c1ccccc1` (stereo not drawn) showed a flash point of 165.00 °C.
`O=P(Oc1ccccc1)(Oc1ccccc1)Oc1ccccc1` [triphenyl phosphate] showed a flash point of 220.00 °C.
`O=c1[nH]cnc2c1ncn2[C@H]1C[C@H](O)[C@@H](COP(=O)(O)OP(=O)(O)O)O1` gave a flash point of 229.00 °C.
Work on `O=c1ccc2ccccc2o1` [chromen-2-one] yielded a flash point of 151.00 °C.
In the case of `Oc1cccc(Br)c1` [3-bromophenol], the flash point is reported as 110.00 °C.
`C1CCC2CCCCC2C1` (stereo not drawn) [1,2,3,4,4a,5,6,7,8,8a-decahydronaphthalene] showed a flash point of 57.00 °C.
In the case of `CC(C)(C)C(=O)O` [2,2-dimethylpropanoic acid], the flash point is reported as 64.00 °C.
For `Sc1ccccc1` [benzenethiol], the flash point was 53.00 °C.
In the case of `COS(C)(=O)=O` [methyl methanesulfonate], the flash point is reported as 104.00 °C.
`OCCN(CCO)CCO` [2-[bis(2-hydroxyethyl)amino]ethanol] showed a flash point of 185.00 °C.
Compound `O=C1OC(=O)c2ccccc21` [2-benzofuran-1,3-dione] has a flash point of 152.00 °C.
For `Oc1ccc(Cl)cc1` [4-chlorophenol], the flash point was 121.00 °C.
With `CCCOC(=O)c1ccc(C(=O)OCCC)nc1` [dipropyl pyridine-2,5-dicarboxylate] the flash point was 93.00 °C.
With `CC(O)CBr` (stereo not drawn) [1-bromopropan-2-ol] the flash point was 54.00 °C.
For `c1ccc(N(c2ccccc2)c2ccccc2)cc1` [N,N-diphenylaniline], the flash point was 180.00 °C.
`CC(C)CCCCCCC=O` [8-methylnonanal] showed a flash point of 85.00 °C.
With `CC(C)(N)CO` [2-amino-2-methylpropan-1-ol] the flash point was 67.00 °C.
`CCC(C=O)CC` [2-ethylbutanal] gave a flash point of 21.00 °C.
`CCc1cccc(CC)c1N(COC)C(=O)CCl` [2-chloro-N-(2,6-diethylphenyl)-N-(methoxymethyl)acetamide] showed a flash point of 137.00 °C.
`Nc1ccccn1` [pyridin-2-amine] gave a flash point of 92.00 °C.
In the case of `Clc1cccc(Cl)c1Cl` [1,2,3-trichlorobenzene], the flash point is reported as 112.00 °C.
`Cc1cc(C)c(C)cc1C` [1,2,4,5-tetramethylbenzene] gave a flash point of 54.00 °C.
`CC(C)=CC(C)(C)C` [2,4,4-trimethylpent-2-ene] gave a flash point of 2.00 °C.
In the case of `CC(C)CCCCCO` [6-methylheptan-1-ol], the flash point is reported as 82.00 °C.
`CCN(C)N=O` [N-ethyl-N-methylnitrous amide] showed a flash point of 76.00 °C.

Remark: another data set of the same source
Compound `CC(C)CCCC(C)C` [2,6-dimethylheptane] has a flash point of 26 °C.
In the case of `CC(=O)c1ccccc1` [acetophenone], the flash point is reported as 77 °C.
Work on `C/C=C/CCC` [trans-2-hexene] yielded a flash point of -25 °C.
With `CC1(C)CCCCC1` [1,1-dimethylcyclohexane] the flash point was 7 °C.
For `CCCCCCCCCc1ccccc1` [nonylbenzene], the flash point was 117 °C.
With `CCCCC(CC)CCC` (stereo not drawn) [4-ethyloctane] the flash point was 41 °C.
`CCCCNC` [N-methylbutylamine] gave a flash point of 2 °C.
With `CCOC(=O)OCC` [diethylcarbonate] the flash point was 33 °C.
For `CC(C)C1CCC(=O)CC1` [4-isopropylcyclohexanone], the flash point was 65 °C.
For `CCCc1ccco1` [2-propylfuran], the flash point was 15 °C.
Compound `CCC(=O)OC` [methylpropanoate] has a flash point of -2 °C.
Compound `CCCC#CCCCCCC` [4-undecyne] has a flash point of 66 °C.
`CCCCCCCOC=O` [heptylformate] gave a flash point of 60 °C.
With `CCCCCC(C)=O` [2-heptanone] the flash point was 39 °C.
`COc1cccc(C)c1` [3-methylanisole] showed a flash point of 52 °C.
Work on `C=C(C)CC` [2-methyl-1-butene] yielded a flash point of -47 °C.
With `CCC[N+](=O)[O-]` [1-nitropropane] the flash point was 34 °C.
